Reference: patent US20240390298A1, “CYCLOHEXYL BETA-HYDROXY ALKYL AMINES AND MEDICAL USES THEREOF” (ATROGI AB, priority 2021, published 2024)
Counter-ions that a name gives are not always drawn.

How the values were obtained:
[1] = tested on: L6-myotubes; experiment: Measurement of intracellular cAMP levels in differentiated L6 cells (alpha screen cAMP kit), compared to isoproterenol; type: cell-based; settings: agonist 1×10^−5 M, 15 min; for Emax at 10 µM: Rattus norvegicus, L6, 0.25 h, read-out: Biological example 2: intracellular cAMP levels, activity compared to that of isoproterenol
Procedure, shortened: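 L6 myoblasts were differentiated into myotubes over 7 days in 2% FBS, then serum-starved overnight. Agonist at 1×10^−5 M final was applied for 15 min in HBSS with 1% BSA, 5 mM HEPES and 1 mM IBMX, pH 7.4. After ethanol extraction and lysis, cAMP was quantified by AlphaScreen, with activity expressed relative to isoproterenol.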

[2] = tested on: L6-myotubes; experiment: Glucose uptake in differentiated L6-myotubes (3H-2-deoxyglucose), compared to isoproterenol; type: cell-based; settings: agonist 1×10^−5 M, 50 nM 3H-2-deoxyglucose; for Emax at 10 µM: read-out: Biological example 1: glucose uptake, activity compared to that of isoproterenol
Procedure, shortened: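 Serum-starved differentiated L6 myotubes stimulated with agonist at 1×10^−5 M for 1 h 40 min, re-dosed in glucose-free medium for 20 min, then given 50 nM ^3H-2-deoxyglucose for 10 min. Uptake read by β-counting of NaOH lysates; activity expressed relative to isoproterenol.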

SMILES | Emax at 10 µM [1] [%] | Biological example 1: glucose uptake, activity compared to that of isoproterenol [2] | Biological example 2: intracellular cAMP levels, activity compared to that of isoproterenol [1] | Emax at 10 µM [2] [%]
O[C@@H](CNCC[C@H]1CC[C@@H](OCc2ccccc2)CC1)c1cccc(F)c1 [Example 41, (R)-2-((2-((1s,4S)-4-(Benzyloxy)cyclohexyl)ethyl)amino)-1-(3-fluoro-phenyl)ethan-1-ol] | < 25 | + + | – | –
CC(C)(C[C@H]1CC[C@H](NS(C)(=O)=O)CC1)NC[C@H](O)c1cccc(C(F)(F)F)n1 [Example 152, N-((1S,4r)-4-(2-(((S)-2-Hydroxy-2-(6-(trifluoromethyl)pyridin-2-yl)-ethyl)amino)-2-methylpropyl)cyclohexyl)methanesulfonamide dihydrochloride] | < 25 | + + | – | –
CC(C)(NC[C@H](O)c1cncc(F)c1)[C@H]1CC[C@H](OCc2ccccc2)CC1 [Example 39, (R)-2-((2-((1r,4R)-4-(Benzyloxy)cyclohexyl)propan-2-yl)amino)-1-(5-fluoropyridin-3-yl)ethan-1-ol] | < 25 | + + | – | –
CC(=O)N[C@H]1CC[C@@H](CC(C)(C)NC[C@H](O)c2cccc(C(F)(F)F)n2)CC1 [Example 149, N-((1R,4s)-4-(2-(((S)-2-Hydroxy-2-(6-(trifluoromethyl)pyridin-2-yl)-ethyl)amino)-2-methylpropyl)cyclohexyl)acetamide dihydrochloride] | < 25 | + + | – | –
CC(C)(C[C@H]1CC[C@H](O)CC1)NC[C@H](O)c1cccc(F)c1.Cl [Example 51, (1R,4r)-4-(2-(((R)-2-(3-Fluorophenyl)-2-hydroxyethyl)amino)-2-methylpropyl)cyclohexan-1-ol hydrochloride] | < 25 | + + + | – | –
CC(C)(C[C@H]1CC[C@@H](N)CC1)NC[C@@H](O)c1cccc(C#N)n1 [Example 131, 6-((R)-2-((1-((1s,4S)-4-Aminocyclohexyl)-2-methylpropan-2-yl)amino)-1-hydroxyethyl)picolinonitrile trihydrochloride] | < 25 | + + | – | –
CC(C)(C[C@H]1CC[C@@H](NC(=O)OC(C)(C)C)CC1)NC[C@H](O)c1cccc(C(F)(F)F)n1 [Example 147, tert-Butyl ((1R,4s)-4-(2-(((S)-2-hydroxy-2-(6-(trifluoromethyl)pyridin-2-yl)ethyl)amino)-2-methylpropyl)cyclohexyl)carbamate] | < 25 | + + | – | –
CC(C)(C[C@H]1CC[C@H](NC(=O)C2CCC2)CC1)NC[C@H](O)c1cccc(F)c1.Cl [Example 155, N-((1R,4r)-4-(2-(((R)-2-(3-Fluorophenyl)-2-hydroxyethyl)amino)-2-methylpropyl)cyclohexyl)cyclobutanecarboxamide hydrochloride] | – | + + + | + + | –
COC1CCC(CCCNC[C@H](O)c2cccc(F)c2)CC1 (stereo partly drawn) [Example 17, (R)-1-(3-Fluorophenyl)-2-((3-((1r,4S)-4-methoxycyclohexyl)propyl)-amino)ethan-1-ol] | < 25 | – | – | 25 to 50
CO[C@H]1CC[C@@H](CNC[C@H](O)c2cncc(F)c2)CC1 [Example 2, (R)-1-(5-Fluoropyridin-3-yl)-2-((((1s,4S)-4-methoxycyclohexyl)-methyl)amino)ethan-1-ol] | < 25 | + + | – | –
CO[C@H]1CC[C@H](CC(C)(C)NC[C@H](O)c2cccc(F)c2)CC1 [Example 15, (R)-1-(3-Fluorophenyl)-2-((1-((1r,4R)-4-methoxycyclohexyl)-2-methyl-propan-2-yl)amino)ethan-1-ol] | < 25 | + + + | – | –
CCOC(=O)CO[C@H]1CC[C@H](C(C)(C)NC[C@H](O)c2cncc(F)c2)CC1 [Example 125, Ethyl 2-(((1R,4r)-4-(2-(((R)-2-(5-fluoropyridin-3-yl)-2-hydroxyethyl)-amino)propan-2-yl)cyclohexyl)oxy)acetate] | < 25 | + + + | – | –
CC(C)(C[C@H]1CC[C@@H](NS(=O)(=O)C(F)(F)F)CC1)NC[C@H](O)c1cccc(F)c1 [Example 172, 1,1,1-Trifluoro-N-((1S,4s)-4-(2-(((R)-2-(3-fluorophenyl)-2-hydroxyethyl)-amino)-2-methylpropyl)cyclohexyl)methanesulfonamide hydrochloride] | < 25 | + + | – | –
CO[C@H]1CC[C@@H](CCCNC[C@H](O)c2cccc(F)c2)CC1 [Example 19, (R)-1-(3-Fluorophenyl)-2-((3-((1s,4R)-4-methoxycyclohexyl)propyl)amino)-ethan-1-ol] | – | + + + | + + | –
CN([C@H]1CC[C@H](CC(C)(C)NC[C@H](O)c2cncc(F)c2)CC1)S(C)(=O)=O.Cl [Example 183, N-((1R,4r)-4-(2-(((R)-2-(5-Fluoropyridin-3-yl)-2-hydroxyethyl)amino)-2-methylpropyl)cyclohexyl)-N-methylmethanesulfonamide] | < 25 | + + + | – | –
CC(C)(C[C@H]1CC[C@H](C(=O)O)CC1)NC[C@H](O)c1cccc(F)c1 [Example 109, (1R,4r)-4-(2-(((R)-2-(3-fluorophenyl)-2-hydroxyethyl)amino)-2-methyl-propyl)cyclohexane-1-carboxylic acid acetate] | < 25 | + + | – | –
CO[C@H]1CC[C@@H](CC(C)(C)NC[C@H](O)c2cncc(F)c2)CC1 [Example 14, (R)-1-(5-Fluoropyridin-3-yl)-2-((1-((1s,4S)-4-methoxycyclohexyl)-2-methylpropan-2-yl)amino)ethan-1-ol] | < 25 | + + + | – | –
CS(=O)(=O)N[C@H]1CC[C@@H](CNC[C@H](O)c2cncc(F)c2)CC1 [Example 78, N-((1S,4s)-4-((((R)-2-(5-Fluoropyridin-3-yl)-2-hydroxyethyl)amino)methyl)-cyclohexyl)methanesulfonamide] | < 25 | + + | – | –
CO[C@H]1CC[C@@H](CNC[C@H](O)c2cccc(F)c2)CC1 [Example 1, (R)-1-(3-Fluorophenyl)-2-((((1s,4S)-4-methoxycyclohexyl)-methyl)amino)ethan-1-ol] | < 25 | + + | – | –
CC(C)(C[C@H]1CC[C@@H](C(=O)O)CC1)NC[C@H](O)c1cncc(F)c1 [Example 106, (1S,4s)-4-(2-(((R)-2-(5-Fluoropyridin-3-yl)-2-hydroxyethyl)amino)-2-methylpropyl)cyclohexane-1-carboxylic acid] | < 25 | – | – | 25 to 50
CC(C)(C[C@H]1CC[C@H](C(=O)O)CC1)NC[C@H](O)c1cncc(F)c1 [Example 110, (1R,4r)-4-(2-(((R)-2-(5-fluoropyridin-3-yl)-2-hydroxyethyl)amino)-2-methylpropyl)cyclohexane-1-carboxylic acid acetate] | < 25 | – | – | < 25
